According to US20040192594A1 (priority 2002, published 2004):
pIC50: −log10 of the molar value. Where two headings read alike, the source gives them in different places.

How the values were obtained:
Torpedo maramorta AchR = Torpedo maramorta AchR (Torpedo marmorata, UniProt P02711); parameters: Relative Affinity: reference not given here; conditions: cited from earlier work
[1] = system: cell lines in tissue culture
mice [2] = conditions: mouse, in vivo
mice [3] = conditions: mouse, in vivo, sc

| Compound | pIC50 (Torpedo maramorta AchR) | Relative Affinity (Torpedo maramorta AchR) | pIC50 (Torpedo maramorta AchR; read-out: IC50) | Toxicity to cell lines [1] | Paralysis in mice injected with the toxin (mice [2]) | Time to death (average) (mice [3]) [min] |
| --- | --- | --- | --- | --- | --- | --- |
| C[N+](C)(C)CCOC(N)=O.[Cl-] [Carbamylcholinechloride] | 2.55 | 0.09 | – | – | – | – |
| CN1CCCC1c1cccnc1 (stereo not drawn) [Nicotine] | 2.85 | 0.19 | – | – | – | – |
| C[N+](C)(C)CCOC(=O)CCCCCCC(=O)OCC[N+](C)(C)C.[I-].[I-] [Suderyldicholine] | – | 104.0 | 5.60 | – | – | – |
| COc1cc2c3cc1Oc1cc(ccc1O)C[C@@H]1c4c(cc(OC)c(O)c4Oc4ccc(cc4)C[C@@H]3N(C)CC2)CC[N+]1(C)C [d-Tubocurarine] | – | 76.5 | 5.47 | – | – | – |
| alpha Bungarotoxin | – | 30,952.0 | 8.08 | – | – | – |
| alpha cobratoxin | – | 1,529.0 | 6.77 | not toxic | very little or no paralysis | 20.5 |
